Data reported in PubChem BioAssay (NCI).
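Each compound was tested at five concentrations against cells in 96-well plates for 48 hours. TGI: total growth inhibition.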

Experiments:
Assay in all cases: inhibition of tumour cell growth, NCI panel, 48 h
NCI-H522 lung = system: NCI-H522 lung
MOLT-4 leukemia = system: MOLT-4 leukemia
DMS 273 small cell lung = system: DMS 273 small cell lung
SF-268 CNS = system: SF-268 CNS
UACC-257 melanoma = system: UACC-257 melanoma
SK-MEL-28 melanoma = system: SK-MEL-28 melanoma
SK-OV-3 ovarian = system: SK-OV-3 ovarian
HCT-116 colon = system: HCT-116 colon
SN12C renal = system: SN12C renal
DLD-1 colon = system: DLD-1 colon
OVCAR-8 ovarian = system: OVCAR-8 ovarian
OVCAR-4 ovarian = system: OVCAR-4 ovarian
M19-MEL melanoma = system: M19-MEL melanoma
SF-295 CNS = system: SF-295 CNS
HOP-62 NSCLC = system: HOP-62 NSCLC
SF-539 CNS = system: SF-539 CNS
IGROV1 ovarian = system: IGROV1 ovarian
HL-60(TB) leukemia = system: HL-60(TB) leukemia
TK-10 renal = system: TK-10 renal
COLO 205 colon = system: COLO 205 colon
LXFL 529 NSCLC = system: LXFL 529 NSCLC
HCC-2998 colon = system: HCC-2998 colon
U251 CNS = system: U251 CNS
LOX IMVI melanoma = system: LOX IMVI melanoma
SNB-19 CNS = system: SNB-19 CNS
UACC-62 melanoma = system: UACC-62 melanoma
CAKI-1 renal = system: CAKI-1 renal
HCT-15 colon = system: HCT-15 colon
RPMI-8226 leukemia = system: RPMI-8226 leukemia
HT29 colon = system: HT29 colon
SK-MEL-2 melanoma = system: SK-MEL-2 melanoma
NCI-H23 lung = system: NCI-H23 lung
M14 melanoma = system: M14 melanoma
HOP-18 NSCLC = system: HOP-18 NSCLC
A498 renal = system: A498 renal
SNB-75 CNS = system: SNB-75 CNS
SNB-78 CNS = system: SNB-78 CNS
SK-MEL-5 melanoma = system: SK-MEL-5 melanoma
KM20L2 colon = system: KM20L2 colon
KM12 colon = system: KM12 colon
MALME-3M melanoma = system: MALME-3M melanoma
UO-31 renal = system: UO-31 renal
SR leukemia = system: SR leukemia
A549 NSCLC = system: A549 NSCLC
DMS 114 small cell lung = system: DMS 114 small cell lung
XF 498 CNS = system: XF 498 CNS
OVCAR-5 ovarian = system: OVCAR-5 ovarian
HOP-92 NSCLC = system: HOP-92 NSCLC
K-562 leukemia = system: K-562 leukemia
NCI-H460 lung = system: NCI-H460 lung
ACHN renal = system: ACHN renal
786-0 renal = system: 786-0 renal
EKVX NSCLC = system: EKVX NSCLC
CCRF-CEM leukemia = system: CCRF-CEM leukemia
OVCAR-3 ovarian = system: OVCAR-3 ovarian
NCI-H226 lung = system: NCI-H226 lung
SW-620 colon = system: SW-620 colon
RXF 393 renal = system: RXF 393 renal
RXF-631 renal = system: RXF-631 renal

## O=C1C(Cl)C(c2cc(Br)ccc2O)N1n1cnc2ccccc2c1=O (configuration not stated)
NCI-H522 lung
  TGI: > 51.5 µM
MOLT-4 leukemia
  TGI: 29 µM
DMS 273 small cell lung
  TGI: > 73.2 µM
SF-268 CNS
  TGI: > 55 µM
UACC-257 melanoma
  TGI: 49.1 µM
SK-MEL-28 melanoma
  TGI: > 78.2 µM
SK-OV-3 ovarian
  TGI: > 100 µM
HCT-116 colon
  TGI: 33.3 µM
SN12C renal
  TGI: > 100 µM
DLD-1 colon
  TGI: > 100 µM
OVCAR-8 ovarian
  TGI: > 100 µM
OVCAR-4 ovarian
  TGI: > 82.7 µM
M19-MEL melanoma
  TGI: 35.1 µM
SF-295 CNS
  TGI: > 100 µM
HOP-62 NSCLC
  TGI: > 100 µM
SF-539 CNS
  TGI: > 100 µM
IGROV1 ovarian
  TGI: > 92.7 µM
HL-60(TB) leukemia
  TGI: 16.4 µM
TK-10 renal
  TGI: > 100 µM
COLO 205 colon
  TGI: > 100 µM
LXFL 529 NSCLC
  TGI: > 100 µM
HCC-2998 colon
  TGI: 65.9 µM
U251 CNS
  TGI: > 100 µM
LOX IMVI melanoma
  TGI: > 100 µM
SNB-19 CNS
  TGI: > 62.9 µM
UACC-62 melanoma
  TGI: > 68 µM
CAKI-1 renal
  TGI: > 94.3 µM
HCT-15 colon
  TGI: > 100 µM
RPMI-8226 leukemia
  TGI: 43.7 µM
HT29 colon
  TGI: > 100 µM
SK-MEL-2 melanoma
  TGI: > 100 µM
NCI-H23 lung
  TGI: > 71 µM
M14 melanoma
  TGI: 27.6 µM
HOP-18 NSCLC
  TGI: 45.5 µM
A498 renal
  TGI: > 100 µM
SNB-75 CNS
  TGI: 71.4 µM
SNB-78 CNS
  TGI: > 93.9 µM
SK-MEL-5 melanoma
  TGI: > 86.8 µM
KM20L2 colon
  TGI: > 100 µM
KM12 colon
  TGI: > 100 µM
MALME-3M melanoma
  TGI: 70.1 µM
UO-31 renal
  TGI: > 56.3 µM
SR leukemia
  TGI: > 36.9 µM
A549 NSCLC
  TGI: > 100 µM
DMS 114 small cell lung
  TGI: 28.2 µM
XF 498 CNS
  TGI: > 100 µM
OVCAR-5 ovarian
  TGI: > 100 µM
HOP-92 NSCLC
  TGI: 71.1 µM
K-562 leukemia
  TGI: > 47.3 µM
NCI-H460 lung
  TGI: 60.5 µM
ACHN renal
  TGI: > 95.2 µM
786-0 renal
  TGI: > 100 µM
EKVX NSCLC
  TGI: 27.8 µM
CCRF-CEM leukemia
  TGI: > 100 µM
OVCAR-3 ovarian
  TGI: > 82.1 µM
NCI-H226 lung
  TGI: 39.1 µM
SW-620 colon
  TGI: > 100 µM
RXF 393 renal
  TGI: > 100 µM

## CC12CCCCC1C(=O)C2(Cl)Cl (configuration not stated)
NCI-H522 lung
  TGI: 4.61 µM
MOLT-4 leukemia
  TGI: 5.44 µM
DMS 273 small cell lung
  TGI: 5.4 µM
SF-268 CNS
  TGI: 14.6 µM
UACC-257 melanoma
  TGI: 5.63 µM
SK-MEL-28 melanoma
  TGI: 4.18 µM
HCT-116 colon
  TGI: 3.51 µM
SN12C renal
  TGI: 12.3 µM
DLD-1 colon
  TGI: 6.22 µM
OVCAR-8 ovarian
  TGI: 5.16 µM
OVCAR-4 ovarian
  TGI: 12.5 µM
SF-295 CNS
  TGI: 3.38 µM
HOP-62 NSCLC
  TGI: 4.92 µM
SF-539 CNS
  TGI: 5.18 µM
IGROV1 ovarian
  TGI: 9.95 µM
HL-60(TB) leukemia
  TGI: 3.88 µM
TK-10 renal
  TGI: 11.3 µM
LXFL 529 NSCLC
  TGI: 6 µM
RXF-631 renal
  TGI: 5 µM
HCC-2998 colon
  TGI: 4.22 µM
U251 CNS
  TGI: 5.56 µM
LOX IMVI melanoma
  TGI: 6.1 µM
UACC-62 melanoma
  TGI: 6.09 µM
CAKI-1 renal
  TGI: 10.1 µM
HCT-15 colon
  TGI: 11.3 µM
RPMI-8226 leukemia
  TGI: 3.79 µM
HT29 colon
  TGI: 3.06 µM
SK-MEL-2 melanoma
  TGI: 4.41 µM
NCI-H23 lung
  TGI: 8.59 µM
M14 melanoma
  TGI: 5.32 µM
A498 renal
  TGI: 12.7 µM
SNB-75 CNS
  TGI: 18.3 µM
SNB-78 CNS
  TGI: 17.9 µM
SK-MEL-5 melanoma
  TGI: 3.82 µM
KM12 colon
  TGI: 4.97 µM
MALME-3M melanoma
  TGI: 4.19 µM
UO-31 renal
  TGI: 5.23 µM
A549 NSCLC
  TGI: 11.2 µM
XF 498 CNS
  TGI: 4.19 µM
OVCAR-5 ovarian
  TGI: 8.96 µM
K-562 leukemia
  TGI: 4.37 µM
NCI-H460 lung
  TGI: 6.37 µM
ACHN renal
  TGI: 5.91 µM
786-0 renal
  TGI: 4.73 µM
EKVX NSCLC
  TGI: 11 µM
CCRF-CEM leukemia
  TGI: 5.45 µM
OVCAR-3 ovarian
  TGI: 3.58 µM
SW-620 colon
  TGI: 4.47 µM
RXF 393 renal
  TGI: 14.3 µM
